From patent US9464044B2, “Compound having ability to inhibit 11Beta-HSD1 enzyme or pharmaceutically acceptable salt thereof, method for producing same, and pharmaceutical composition containing same as active ingredient” (AHN-GOOK PHARMACEUTICAL CO., LTD., priority 2012, dated 2016) come the findings set out here.

Chain of 11β-HSD1 (P28845 whole entry): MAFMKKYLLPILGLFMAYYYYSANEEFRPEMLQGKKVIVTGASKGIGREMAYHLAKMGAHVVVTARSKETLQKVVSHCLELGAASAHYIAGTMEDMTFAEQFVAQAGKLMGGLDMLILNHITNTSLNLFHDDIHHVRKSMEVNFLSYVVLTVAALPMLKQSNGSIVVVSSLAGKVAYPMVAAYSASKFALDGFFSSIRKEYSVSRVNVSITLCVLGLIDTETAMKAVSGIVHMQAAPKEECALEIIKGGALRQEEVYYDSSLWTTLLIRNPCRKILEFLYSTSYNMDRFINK

One assay has as its target 11β-HSD1 (Homo sapiens (Human), UniProt P28845). The experiment in a line: 11β-HSD1 inhibiting activity, HTRF assay with human microsomal fractions. The class given is biochemical. Conditions: 160 nM cortisone, 200 μM NADPH, 2 h at 37° C. As to the method:
The inhibiting activity of 11β-HSD1 derived from microsomal fractions was measured using the HTRF assay (62CO2PEB, Cisbio). […] Europium (Eu^3+) cryptate and XL665-conjugated cortisol were then added to each well and incubated for an additional 2 h at room temperature. The Cortisol concentration was calculated u sing a calibration curve. The IC50 values were calculated from dose response curves using GraphPad Prism software.
(Time-resolved FRET reads energy transfer from a long-lived donor to a nearby acceptor.)
Turning to `CC(C)(NS(=O)(=O)c1ccccc1F)C(=O)NC1C2CC3CC1CC(C(N)=O)(C3)C2` (stereo not drawn) [Example 71, E-4-[2-(2-fluoro-benzenesulfonylamino)-2-methylpropanamido]-adamantan-1-carboxylic acid amide], it took 0.6 nM to reach half-maximal inhibition (IC50).
The compound `Cc1cc(S(=O)(=O)NCC2(C(=O)NC3C4CC5CC3CC(C(N)=O)(C5)C4)CC2)c(Cl)cc1Cl` (stereo not drawn) [Example 14, E-4-[1-((2,4-dichloro-5-methyl-benzenesulfonylamino)methyl)cyclopropanecarboxamido]-adamantan-1-carboxylic acid amide] displayed an IC50 of 13.3 nM.
The same measure, in the same setting: to `NC(=O)C12CC3CC(C1)C(NC(=O)c1cccc(NS(=O)(=O)c4ccc(F)cc4F)c1)C(C3)C2` (stereo not drawn) [Example 121, E-4-[3-(2,4-difluoro-benzenesulfonylamino)-benzamido]-adamantan-1-carboxylic acid amide] belongs 7.8 nM; to `NC(=O)C12CC3CC(C1)C(NC(=O)C1(CNS(=O)(=O)c4cccc(Cl)c4)CC1)C(C3)C2` (stereo not drawn) [Example 7, E-4-[1-((3-chloro-benzenesulfonylamino)methyl)cyclopropanecarboxamido]-adamantan-1-carboxylic acid amide], 2.6 nM.
Compound `NC(=O)C12CC3CC(C1)C(NC(=O)C1(NS(=O)(=O)c4ccc(F)cc4)CC1)C(C3)C2` (stereo not drawn) [Example 42, E-4-[1-(4-fluoro-benzenesulfonylamino)cyclopropanecarboxamido]-adamantan-1-carboxylic acid amide] gave an IC50 of 6.4 nM. This IC50 lies about 2.5-fold higher than the previous one.
Same read-out and setting: the same measure for `NC(=O)C12CC3CC(C1)C(NC(=O)c1cccc(NS(=O)(=O)c4cc(F)ccc4F)c1)C(C3)C2` (stereo not drawn) [Example 122, E-4-[3-(2,5-difluoro-benzenesulfonylamino)-benzamido]-adamantan-1-carboxylic acid amide]: 15.1 nM; for `O=C(NC1C2CC3CC1CC(O)(C3)C2)C1(CNS(=O)(=O)c2ccccc2F)CC1` (stereo not drawn) [Example 2, 1-[(2-fluoro-benzenesulfonylamino)methyl]-N-(5-hydroxyadamantan-2-yl)cyclopropanecarboxamide]: 26.6 nM; for `NC(=O)C12CC3CC(C1)C(NC(=O)c1cccc(NS(=O)(=O)c4c(F)cccc4F)c1)C(C3)C2` (stereo not drawn) [Example 123, E-4-[3-(2,6-difluoro-benzenesulfonylamino)-benzamido]-adamantan-1-carboxylic acid amide]: 12.8 nM.
Same read-out and setting: to `Cn1ccc2cc(S(=O)(=O)NCC3(C(=O)NC4C5CC6CC4CC(C(N)=O)(C6)C5)CC3)ccc21` (stereo not drawn) [Example 26, E-4-[1-((1-methyl-1H-indole-5-sulfonylamino)methyl)cyclopropanecarboxamido]-adamantan-1-carboxylic acid amide] belongs 1.2 nM.
Same read-out and setting: the same measure for `NC(=O)C12CC3CC(C1)C(NC(=O)C1(NC(=O)c4cccc(F)c4F)CC1)C(C3)C2` (stereo not drawn) [Example 59]: 11.2 nM.
Compound `NC(=O)C12CC3CC(C1)C(NC(=O)C1(CNS(=O)(=O)c4cc(F)cc(F)c4)CC1)C(C3)C2` (stereo not drawn) [Example 9, E-4-[1-((3,5-difluoro-benzenesulfonylamino)methyl)cyclopropanecarboxamido]-adamantan-1-carboxylic acid amide] yielded an IC50 of 608 nM.
Still for that read-out and setting: to `NC(=O)C12CC3CC(C1)C(NC(=O)C1(CNS(=O)(=O)c4ccco4)CC1)C(C3)C2` (stereo not drawn) [Example 17, E-4-[1-((furan-2-sulfonylamino)methyl)cyclopropanecarboxamido]-adamantan-1-carboxylic acid amide] belongs 132 nM; to `Cc1n[nH]c(C)c1S(=O)(=O)Nc1cccc(C(=O)NC2C3CC4CC2CC(C(N)=O)(C4)C3)c1` (stereo not drawn) [Example 108, E-4-[3-(3,5-dimethyl-1H-pyrazole-4-sulfonylamino)-benzamido]-adamantan-1-carboxylic acid amide], 51.2 nM.
Still for that read-out and setting: the same measure for `NC(=O)C12CC3CC(C1)C(NC(=O)C1(CNS(=O)(=O)c4ccc(F)cc4C(F)(F)F)CC1)C(C3)C2` (stereo not drawn) [Example 20, E-4-[1-((2-(trifluoromethyl)-4-fluoro-benzenesulfonylamino)methyl)cyclopropanecarboxamido]-adamantan-1-carboxylic acid amide]: 102 nM; for `NC(=O)C12CC3CC(C1)C(NC(=O)c1cccc(NS(=O)(=O)c4ccc(Br)cc4Cl)c1)C(C3)C2` (stereo not drawn) [Example 116, E-4-[3-(2-chloro-4-bromo-benzenesulfonylamino)-benzamido]-adamantan-1-carboxylic acid amide]: 14.5 nM.
In turn, `Cc1cccc(F)c1S(=O)(=O)NC1(C(=O)NC2C3CC4CC2CC(C(N)=O)(C4)C3)CC1` (stereo not drawn) [Example 40, E-4-[1-(2-fluoro-6-methyl-benzenesulfonylamino)cyclopropanecarboxamido]-adamantan-1-carboxylic acid amide] registered an IC50 of 1.7 nM.
With `NC(=O)C12CC3CC(C1)C(NC(=O)C1(NS(=O)(=O)c4ccc(F)c(F)c4F)CC1)C(C3)C2` (stereo not drawn) [Example 47, E-4-[1-(2,3,4-trifluoro-benzenesulfonylamino)cyclopropanecarboxamido]-adamantan-1-carboxylic acid amide], the IC50 is 495 nM.
Same read-out and setting: to `NC(=O)C12CC3CC(C1)C(NC(=O)c1cccc(NS(=O)(=O)c4ccccc4)c1)C(C3)C2` (stereo not drawn) [Example 105] belongs 42.7 nM.
Still for that read-out and setting: to `NC(=O)C12CC3CC(C1)C(NC(=O)C1(CNS(=O)(=O)c4cccc(F)c4F)CC1)C(C3)C2` (stereo not drawn) [Example 11, E-4-[1-((2,3-difluoro-benzenesulfonylamino)methyl)cyclopropanecarboxamido]-adamantan-1-carboxylic acid amide] belongs 10.4 nM; to `Cc1cc(S(=O)(=O)NC2(C(=O)NC3C4CC5CC3CC(C(N)=O)(C5)C4)CC2)c(F)cc1Cl` (stereo not drawn) [Example 46, E-4-[1-(2-fluoro-4-chloro-5-methyl-benzenesulfonylamino)cyclopropanecarboxamido]-adamantan-1-carboxylic acid amide], 34.7 nM.
As for `NC(=O)C12CC3CC(C1)C(NC(=O)c1cccc(NS(=O)(=O)c4cccc(F)c4)c1)C(C3)C2` (stereo not drawn) [Example 120, E-4-[3-(3-fluoro-benzenesulfonylamino)-benzamido]-adamantan-1-carboxylic acid amide], the 50% inhibitory concentration (IC50) was found to be 27.2 nM.
On the same count and under the same terms, the same measure for `Cc1cccc(F)c1S(=O)(=O)NCC1(C(=O)NC2C3CC4CC2CC(C(N)=O)(C4)C3)CC1` (stereo not drawn) [Example 10, E-4-[1-((2-fluoro-6-methyl-benzenesulfonylamino)methyl)cyclopropanecarboxamido]-adamantan-1-carboxylic acid amide]: 2.5 nM.
Same read-out and setting: the same measure for `CN(c1cccc(C(=O)NC2C3CC4CC2CC(C(N)=O)(C4)C3)c1)S(=O)(=O)c1ccccc1C(F)(F)F` (stereo not drawn) [Example 99, E-4-(3-[(2-trifluoromethyl-benzenesulfonyl)-methylamino]-benzamido)-adamantan-1-carboxylic acid amide]: 1.9 nM; for `NC(=O)C12CC3CC(C1)C(NC(=O)c1ccccc1NS(=O)(=O)c1ccccc1F)C(C3)C2` (stereo not drawn) [Example 92, E-4-[2-(2-fluoro-benzenesulfonylamino)-benzamido]-adamantan-1-carboxylic acid amide]: 148 nM.
The same measure, in the same setting: the same measure for `NC(=O)C12CC3CC(C1)C(NC(=O)c1cccc(NS(=O)(=O)C4CC4)c1)C(C3)C2` (stereo not drawn) [Example 138, E-4-(3-(cyclopropanesulfonamido)benzamido)adamantan-1-carboxylic acid amide]: 62.1 nM; for `Cc1c(Cl)cccc1S(=O)(=O)NCC1(C(=O)NC2C3CC4CC(C3)CC2C4)CC1` (stereo not drawn) [Example 1, N-(adamantan-2-yl)-1-[(3-chloro-2-methylbenzenesulfonylamino)methyl]cyclopropanecarboxamide]: 14.2 nM.
For the compound `NC(=O)C12CC3CC(C1)C(NC(=O)c1cccc(NS(=O)(=O)c4ccccc4C(F)(F)F)c1)C(C3)C2` (stereo not drawn) [Example 100], 15.3 nM corresponded to half-maximal inhibition (IC50).
The same measure, in the same setting: to `NC(=O)C12CC3CC(C1)C(NC(=O)C1(NC(=O)c4ccc(C(F)(F)F)cn4)CC1)C(C3)C2` (stereo not drawn) [Example 64] belongs 111 nM.

Another assay concerns KKAy mice. The assay can be described thus: In vivo study of the lowering effect on plasma glucose and plasma insulin in KKAy mouse model. The conditions noted are these: either 100 mg/kg or 50 mg/kg.
`CN(CC1(C(=O)NC2C3CC4CC2CC(C(N)=O)(C4)C3)CC1)S(=O)(=O)c1ccccc1F` (stereo not drawn) [Example 22, E-4-[1-((2-fluoro-N-methyl-benzenesulfonylamino)methyl)cyclopropanecarboxamido]-adamantan-1-carboxylic acid amide]: the “levels of plasma glucose and plasma insulin” value was “significantly reduced”.
Still for that read-out and setting: to `NC(=O)C12CC3CC(C1)C(NC(=O)c1cccc(NS(=O)(=O)c4cc(Cl)cc(Cl)c4)c1)C(C3)C2` (stereo not drawn) [Example 119, E-4-[3-(3,5-dichloro-benzenesulfonylamino)benzamido]-adamantan-1-carboxylic acid amide] belongs “significantly reduced”; to `NC(=O)C12CC3CC(C1)C(NC(=O)C1(CNS(=O)(=O)c4ccccc4F)CC1)C(C3)C2` (stereo not drawn) [Example 3, E-4-[1-((2-fluoro-benzenesulfonylamino)methyl)cyclopropanecarboxamido]-adamantan-1-carboxylic acid amide], “significantly reduced”; to `CC(C)(NS(=O)(=O)c1c(F)cccc1F)C(=O)NC1C2CC3CC1CC(C(N)=O)(C3)C2` (stereo not drawn) [Example 84, E-4-[2-(2,6-difluoro-benzenesulfonylamino)-2-methylpropanamido]adamantan-1-carboxylic acid amide], “significantly reduced”.
For the compound `CC(C)(NS(=O)(=O)c1ccccc1F)C(=O)NC1C2CC3CC1CC(C(N)=O)(C3)C2` (stereo not drawn) [Example 71, E-4-[2-(2-fluoro-benzenesulfonylamino)-2-methylpropanamido]-adamantan-1-carboxylic acid amide], the “levels of plasma glucose and plasma insulin” value was “significantly reduced”.

The assay is the same for the next values; noted with them: oral, 50 mg/kg, 3 weeks, after fasting.
With `NC(=O)C12CC3CC(C1)C(NC(=O)c1cccc(NS(=O)(=O)c4cc(Cl)cc(Cl)c4)c1)C(C3)C2` (stereo not drawn) [Example 119, E-4-[3-(3,5-dichloro-benzenesulfonylamino)benzamido]-adamantan-1-carboxylic acid amide], the “Plasma glucose lowering effect” value is given as 47% and the “Plasma insulin lowering effect” value is on record as 52%.
`CC(C)(NS(=O)(=O)c1c(F)cccc1F)C(=O)NC1C2CC3CC1CC(C(N)=O)(C3)C2` (stereo not drawn) [Example 84, E-4-[2-(2,6-difluoro-benzenesulfonylamino)-2-methylpropanamido]adamantan-1-carboxylic acid amide]: the “Plasma glucose lowering effect” value is 19% and the “Plasma insulin lowering effect” value is 43%.

Still in this assay, the particulars now being: oral, 100 mg/kg, 3 weeks, after fasting.
On to `CC(C)(NS(=O)(=O)c1ccccc1F)C(=O)NC1C2CC3CC1CC(C(N)=O)(C3)C2` (stereo not drawn) [Example 71, E-4-[2-(2-fluoro-benzenesulfonylamino)-2-methylpropanamido]-adamantan-1-carboxylic acid amide], for which the “Plasma glucose lowering effect” value is 27% and the “Plasma insulin lowering effect” value was found to be 40%.

What is called IC50 is the point on the concentration scale where inhibition reaches its midpoint.
